Columns and labels:
[1] = Stability of crystalline form A (polymorphic form identification by XRPD on storage); assay type: physicochemical; settings: 1 Month, complies with Form A
Excerpt: Stability data of crystalline form A of deucravacitinib prepared by the present invention: […]

[2] = Particle size of crystalline form A (Example 38); assay type: physicochemical

[2H]C([2H])([2H])NC(=O)c1nnc(NC(=O)C2CC2)cc1Nc1cccc(-c2ncn(C)n2)c1OC [crystalline form A of deucravacitinib, 6-(cyclopropanecarboxamido)-4-((2-methoxy-3-(1-methyl-1H-1,2,4-triazol-3-yl)phenyl)amino)-N-(trideuteriomethyl)pyridazine-3-carboxamide]
Polymorphic Form Identification: XRPD pattern should exhibit characteristic peaks of Form A at 10.1°, 12.4°, 18.9°, 19.3° and 20.4° ± 0.2° 2 theta ([1]; storage 25 °C/60% RH): Complies
Polymorphic Form Identification: XRPD pattern should exhibit characteristic peaks of Form A at 10.1°, 12.4°, 18.9°, 19.3° and 20.4° ± 0.2° 2 theta ([1]; storage 40 °C/75% RH): Complies
Polymorphic Form Identification: XRPD pattern should exhibit characteristic peaks of Form A at 10.1°, 12.4°, 18.9°, 19.3° and 20.4° ± 0.2° 2 theta ([1]; storage 60 °C/90% RH): Complies
Particle Size D10 ([2]; After jet milling): 1.6 μm
Particle Size D50 ([2]; After jet milling): 3.0 μm
Particle Size D90 ([2]; After jet milling): 5.6 μm
Particle Size D10 ([2]; before jet milling): 9.4 μm
Particle Size D50 ([2]; before jet milling): 21.64 μm
Particle Size D90 ([2]; before jet milling): 39.49 μm

Source: patent US20260317307A1, “Process for the Preparation of Deucravacitinib, and Crystalline Forms Thereof” (Alivus Life Sciences Limited, priority 2023, published 2026)
